We go through 1 molecule from patent US20200246465A1, “USE OF TRYPTOPHAN DERIVATIVES FOR PROTEIN FORMULATIONS” (Genentech, Inc., priority 2015, published 2020).

A short description of data set [1]: AAPH stress of proteins with or without NAT, site-specific Trp oxidation by LC-MS tryptic peptide mapping. Format: physicochemical. The settings on record: Mab2 W53 and W106, Mab4 W52, Mab1 W103, Mab6 W103/104; 1 mM AAPH; NAT 0.05-1 mM. The protocol: Proteins Mab1, Mab2, and Mab3/Mab4 were dialyzed into a sodium acetate buffer (20 mM sodium acetate pH 5.5) and Mab5/Mab6 was dialyzed into a histidine-based buffer (20 mM histidine hydrochloride pH 5.5). Protein solutions were diluted to a final concentration of 1 mg/mL protein in the corresponding buffer and 1 mM 2,2′-Azobis(2-amidinopropane) dihydrochloride (AAPH) was added. N-acetyl-Trp (NAT) was added from a concentrated stock solution to each protein solution at concentrations from 0 to 5 mM. Samples were incubated at 40° C. for 16 hours followed by quenching with methionine and buffer exchange to the initial dialysis buffer plus 100 mM sucrose.
Site-specific modifications of AAPH-stressed samples of Mab2, Mab1, and Mab3/Mab4 were monitored using a microscale tryptic peptide digest followed by liquid chromatography-mass spectrometry (LC-MS) (Anderson, N. et al., Nov. 20, 2014, American Pharmaceutical Review). […]
Peptide mapping of each digested sample was performed on a Waters Acquity H-Class UHPLC coupled to a Thermo Q Exactive Plus high resolution mass spectrometry system (HRMS). […] Column effluent was monitored at 214 nm. […] The oxidation level at each site was determined by extracted ion chromatography (EIC) using the Thermo XCalibur biopharmaceutical characterization software. […]

Data set [2] can be described thus: Real time stability of NAT in drug product formulations. The class given is physicochemical. The protocol: NAT and NAT degradants were separated on an Agilent 1200 series HPLC or Waters H Class UPLC using an Agilent ZORBAX SB-C18 3.5 μm, 4.6×75 mm reverse phase column. Column temperature was held at 30±0.8° C. by a thermostat controller. The gradients used for HPLC and UPLC are listed in Tables 5 and 6, respectively (note: the shorter gradient on the UPLC was designed to accommodate earlier retention times and the column re-equilibration period was elongated due to the larger range of system pressure at a flow rate of 1.0 ml/min). NAT degradation products were detected at 240 nm. The standard bandwidth setting (8 nm for Agilent 1200 HPLC, 4.8 nm for Waters H-Class) was used for analysis on each instrument. The autosampler was maintained at 5±3° C. 10 nmol of NAT and/or NAT degradants (50 μl for most samples) was injected on to the column for analysis. The chromatograms were processed using Dionex Chromeleon software. Protein-containing samples were diluted in guanidine and the proteins removed via ultra-filtration (Amicon spin filters with a 30 kDa molecular weight cut-off). […] Using the final sample preparation conditions, recovery of NAT was 94-99% for three tested antibody/antibody derivatives and recovery of NAT degradants was 98-100% (data not shown). With this model experience in hand, the amount of NAT oxidation expected to occur in the manufacturing and storage of mAbs was explored next. FIG. 12 illustrates the comparison of the AAPH model stress system with an antibody at 150 mg/ml (1.0 mM) co-formulated with NAT, Met, and other excipients typical of mAb formulations. Results are shown for the initial time point, at −20° C. and 5° C. for six months (representative of typical storage conditions), and 25° C. for 6 months (representative of accelerated stability conditions). Oxidation levels were negligible directly after manufacturing and under the typical storage conditions tested.

For `CC(=O)N[C@@H](Cc1c[nH]c2ccccc12)C(=O)O` [NAT, N-acetyl-tryptophan], the “NAT protection from AAPH-induced oxidation of oxidation-prone tryptophan residues” value in data set [1] is recorded as “able to protect each tested residue from oxidation”. In data set [2] (3 months at 25° C., corresponding vehicle (formulation without protein)), the “loss of NAT” value is reported as 1%. In data set [2] (3 months at 25° C., protein containing sample (antibody 150 mg/ml, NAT, Met, excipients)), the NAT loss was 7.5%. Also, the NAT oxidation levels result in data set [2] (directly after manufacturing and at −20° C. and 5° C. for six months, antibody 150 mg/ml co-formulated with NAT, Met) is “negligible”. Moreover, in data set [2] (six months at 25° C., antibody at 150 mg/ml (1.0 mM) co-formulated with NAT, Met and other excipients), the “total NAT loss” value is listed as 16.8%. Moreover, the NAT degradation entry in data set [2] (vehicle (formulation without protein) at higher temperatures) was “minimal NAT degradation”.
